# Measurements from patent EP4653445A1, “CDK INHIBITOR AND CRYSTAL FORM OF PHARMACEUTICALLY ACCEPTABLE SALT THEREOF, AND USE THEREOF” (CSPC Zhongqi Pharmaceutical Technology (Shijiazhuang) Co., …, priority 2023, dated 2024).
# Experiments:
# [1] = Dynamic vapor sorption (DVS) test; format: physicochemical; conditions: DVS
# Description: • Instrument: TA Instruments Q5000 SA • Detection method: 20 to 50 mg of the sample was placed in a tared sample basket and automatically weighed, and DVS testing was performed according to the parameters in Table 7: Step Time: 60 min; Equilibration Time per RH%: 1 hour; Total Gas Flow Rate: 200 sccm; Gradient mode: 0%-90%-0% humidity variation, with a humidity variation amount of 10% for each gradient level between 0% and 90%, and gradient endpoint was determined by dm/dt < 0.01% maintained for 10 minutes.
# [2] = Stability test, samples placed open for 7 days (HPLC and XRPD); format: physicochemical; conditions: for XRPD-7days / Purity (Peak area%) 7 days: open
# Source text: Subsequently, the samples after 7 days were respectively detected by HPLC and XRPD to determine their chemical and physical stabilities.
# [3] = Grinding or crushing of the crystalline form; format: physicochemical
# Source text: Table 28 Results of Stability Test
# [4] = Stress testing (high temperature, high humidity, illumination); format: physicochemical
# [5] = Accelerated stability testing; format: physicochemical; conditions: 40°C±2°C/75%±5%RH, simulated commercial packaging
# [6] = Long-term stability testing; format: physicochemical; conditions: 25°C±2°C/60%±5%RH, simulated commercial packaging
# [7] = Stability test, samples placed open for 7 days (HPLC and XRPD); format: physicochemical; conditions: HPLC
# [8] = Solubility comparison in water, SGF, FaSSIF and FeSSIF (HPLC of filtrates, XRPD of filter cakes); conditions: SGF, time not stated
# [9] = High Humidity (92.5% RH), 7 days
# [10] = High Humidity (92.5% RH), 14 days
# [11] = High Humidity (92.5% RH), 30 days
# [12] = High Temperature (60°C), 7 days
# [13] = High Temperature (60°C), 14 days
# [14] = High Temperature (60°C), 30 days
# [15] = Illumination Testing 4500lx±500lx, 7 days
# [16] = Illumination Testing 4500lx±500lx, 14 days
# [17] = Illumination Testing 4500lx±500lx, 30 days
smiles,measurement,setting,value
CC(=O)c1c(C)c2cnc(Nc3ccc4c(c3)OC[C@@H]3CN(C5CCN(C)CC5)CCN43)nc2n(C2CCCC2)c1=O [crystalline form A-I of the free base of compound A],hygroscopic properties,[1]; 0%-90% RH,non-hygroscopic
same,weight change,[1]; across 0%-90% RH,approximately 0.17%
same,XRPD-7days,[2]; 40°C /75%RH,Unchanged
same,Purity (Peak area%) 7 days,"[2]; 40°C /75%RH, HPLC",99.20 Peak area%
same,chemical stability,"[2]; 60 °C, 92.5% RH and 40 °C/75% RH for 7 days, HPLC",chemically stable
same,XRPD-7days,[2]; 60°C,Unchanged
same,Purity (Peak area%) 7 days,"[2]; 60°C, HPLC",99.24 Peak area%
same,XRPD-7days,[2]; 92.5%RH,Unchanged
same,Purity (Peak area%) 7 days,"[2]; 92.5%RH, HPLC",99.24 Peak area%
same,crystalline form (XRPD) after 7 days,"[2]; under the three conditions 60 °C, 92.5% RH and 40 °C/75% RH",remained unchanged
same,crystalline form after grinding or crushing,[3],remained unchanged
same,Content (%),[4]; 0 Day,99.5%
same,Description Appearance,[4]; 0 Day,Yellow solid
same,Total impurities (%),[4]; 0 Day,0.84%
same,crystalline form,[4]; 0 Day,crystalline form A-I of free base
same,loss on drying (%),[4]; 0 Day,0.03%
same,Content (%),[4]; [9],100.2%
same,Description Appearance,[4]; [9],Yellow solid
same,Hygroscopic weight gain (%),[4]; [9],0.03%
same,Total impurities (%),[4]; [9],0.76%
same,loss on drying (%),[4]; [9],0.06%
same,Content (%),[4]; [10],99.6%
same,Description Appearance,[4]; [10],Yellow solid
same,Hygroscopic weight gain (%),[4]; [10],0.05%
same,Total impurities (%),[4]; [10],0.78%
same,loss on drying (%),[4]; [10],0.07%
same,Content (%),[4]; [11],101.0%
same,Description Appearance,[4]; [11],Yellow solid
same,Hygroscopic weight gain (%),[4]; [11],0.09%
same,Total impurities (%),[4]; [11],0.87%
same,crystalline form,[4]; [11],Unchanged
same,loss on drying (%),[4]; [11],0.05%
same,Content (%),[4]; [12],100.4%
same,Description Appearance,[4]; [12],Yellow solid
same,Total impurities (%),[4]; [12],0.76%
same,loss on drying (%),[4]; [12],0.05%
same,Content (%),[4]; [13],100.6%
same,Description Appearance,[4]; [13],Yellow solid
same,Total impurities (%),[4]; [13],0.83%
same,loss on drying (%),[4]; [13],0.05%
same,Content (%),[4]; [14],100.1%
same,Description Appearance,[4]; [14],Yellow solid
same,Total impurities (%),[4]; [14],0.81%
same,crystalline form,[4]; [14],Unchanged
same,loss on drying (%),[4]; [14],0.03%
same,Content (%),[4]; [15],101.0%
same,Description Appearance,[4]; [15],Yellow solid
same,Total impurities (%),[4]; [15],0.76%
same,loss on drying (%),[4]; [15],0.07%
same,Content (%),[4]; [16],100.2%
same,Description Appearance,[4]; [16],Yellow solid
same,Total impurities (%),[4]; [16],0.79%
same,loss on drying (%),[4]; [16],0.06%
same,Content (%),[4]; [17],100.2%
same,Description Appearance,[4]; [17],Yellow solid
same,Total impurities (%),[4]; [17],0.84%
same,crystalline form,[4]; [17],Unchanged
same,loss on drying (%),[4]; [17],0.07%
same,stability in stress testing (conclusion),"[4]; high temperature, high humidity and illumination conditions",good stability
same,stability under illumination,"[4]; illuminance 4500 lx±500 lx, total not less than 1.2×10^6 lux·hr, near-UV not less than 200 W·hr/m^2",relatively stable
same,"description, loss on drying, relevant substances, crystalline form and content compared with 0 month",[5]; 6 months,basically the same
same,Description Appearance,[5]; 0 months,Yellow solid
same,Measured content (%),[5]; 0 months,99.5%
same,Total impurities (%),[5]; 0 months,0.84%
same,crystalline form,[5]; 0 months,crystalline form A-I of free base
same,loss on drying (%),[5]; 0 months,0.03%
same,Description Appearance,[5]; 1 month,Yellow solid
same,Measured content (%),[5]; 1 month,100.4%
same,Total impurities (%),[5]; 1 month,0.80%
same,loss on drying (%),[5]; 1 month,0.04%
same,Description Appearance,[5]; 2 months,Yellow solid
same,Measured content (%),[5]; 2 months,100.8%
same,Total impurities (%),[5]; 2 months,0.82%
same,loss on drying (%),[5]; 2 months,0.02%
same,Description Appearance,[5]; 3 months,Yellow solid
same,Measured content (%),[5]; 3 months,100.6%
same,Total impurities (%),[5]; 3 months,0.85%
same,crystalline form,[5]; 3 months,Unchanged
same,loss on drying (%),[5]; 3 months,0.02%
same,Description Appearance,[5]; 6 months,Yellow solid
same,Measured content (%),[5]; 6 months,100.9%
same,Total impurities (%),[5]; 6 months,0.77%
same,crystalline form,[5]; 6 months,Unchanged
same,loss on drying (%),[5]; 6 months,0.08%
same,"description, loss on drying, relevant substances, crystalline form and content compared with 0 month",[6]; 18 months,basically the same
same,Description Appearance,[6]; 0 months,Yellow solid
same,Measured content (%),[6]; 0 months,99.5%
same,Total impurities (%),[6]; 0 months,0.84%
same,crystalline form,[6]; 0 months,crystalline form A-I of free base
same,loss on drying (%),[6]; 0 months,0.03%
same,Description Appearance,[6]; 3 months,Yellow solid
same,Measured content (%),[6]; 3 months,100.8%
same,Total impurities (%),[6]; 3 months,0.89%
same,crystalline form,[6]; 3 months,Unchanged
same,loss on drying (%),[6]; 3 months,0.02%
same,Description Appearance,[6]; 6 months,Yellow solid
same,Measured content (%),[6]; 6 months,100.6%
same,Total impurities (%),[6]; 6 months,0.75%
same,crystalline form,[6]; 6 months,Unchanged
same,loss on drying (%),[6]; 6 months,0.05%
same,Description Appearance,[6]; 9 months,Yellow solid
same,Measured content (%),[6]; 9 months,99.6%
same,Total impurities (%),[6]; 9 months,0.73%
same,crystalline form,[6]; 9 months,Unchanged
same,loss on drying (%),[6]; 9 months,0.05%
same,Description Appearance,[6]; 12 months,Yellow solid
same,Measured content (%),[6]; 12 months,100.8%
same,Total impurities (%),[6]; 12 months,0.78%
same,crystalline form,[6]; 12 months,Unchanged
same,loss on drying (%),[6]; 12 months,0.05%
same,Description Appearance,[6]; 18 months,Yellow solid
same,Measured content (%),[6]; 18 months,98.7%
same,Total impurities (%),[6]; 18 months,0.71%
same,crystalline form,[6]; 18 months,Unchanged
same,loss on drying (%),[6]; 18 months,0.03%
same,Purity (Peak area%) 0 day,[7],99.16 Peak area%
same,solubility in SGF,[8],more than 5 mg/mL
